From US7652071B2, “Penetration of active substances into cells and organs” (Alpha-Biocare GmbH, priority 2003, dated 2010)

Test system: Angiostrongylus cantonensis
Experiment: Detection of worm stages in the brain of Wistar rats experimentally infected with Angiostrongylus cantonensis after oral treatment
Format: in vivo
Procedure: Each rat was infected with precisely 60 L3 larvae. From day 5 post-infection onwards, mebendazole was administered once daily on three successive days at the dosage rates and in the formulations stated. The worms were detected on day 21 post-infection.

Q: What does the source list for `COC(=O)Nc1nc2ccc(C(=O)c3ccccc3)cc2[nH]1` [Mebendazole, mebendazole]?
A: Worm detection in the brain (aqueous suspension, mebendazole 10 mg/kg body weight oral, once daily on three successive days from day 5 post-infection, worms detected day 21, % of infection control (55 worms = 100%)): 98.2%; Worm reduction in the brain (mebendazole with the aid of the carrier system, at a more than 30-fold reduced mebendazole dose): significant worm reduction in the brain
